Source: ChEMBL document CHEMBL1201862, “PubChem BioAssay data set” (2004)
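Cells were grown in 96-well plates and exposed to each compound for 48 hours at five concentrations; endpoints were interpolated linearly between bracketing concentrations, or set to the highest concentration if not reached. At the GI50, growth is halved.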 Activity calls are given as the source filed them. Cut-off read from the data, not from the text of the source: active = GI50 up to about 1.1 µM and inactive = higher.

Tests used:
Assay in all cases: NCI tumour cell line growth inhibition, 48 h
CAKI-1 = system: CAKI-1
SR = system: SR
NCI-H460 = system: NCI-H460
SW-620 = system: SW-620
A549 = system: A549
COLO 205 = system: COLO 205
TK-10 = system: TK-10
CCRF-CEM = system: CCRF-CEM
IGROV-1 = system: IGROV-1
DU-145 = system: DU-145
M14 = system: M14
MOLT-4 = system: MOLT-4
SK-MEL-28 = system: SK-MEL-28
SN12C = system: SN12C
RPMI-8226 = system: RPMI-8226
786-0 = system: 786-0
OVCAR-5 = system: OVCAR-5
NCI-H23 = system: NCI-H23
PC-3 = system: PC-3
Malme-3M = system: Malme-3M

Row | Structure (SMILES) | GI50 (CAKI-1) | GI50 (SR) | GI50 (NCI-H460) | GI50 (SW-620) | GI50 (A549) | GI50 (COLO 205) | GI50 (TK-10) | GI50 (CCRF-CEM) | GI50 (IGROV-1) | GI50 (DU-145) | GI50 (M14) | GI50 (MOLT-4) | GI50 (SK-MEL-28) | GI50 (SN12C) | GI50 (RPMI-8226) | GI50 (786-0) | GI50 (OVCAR-5) | GI50 (NCI-H23) | GI50 (PC-3) | GI50 (Malme-3M)
1 | O=S(=O)(O)c1cc(/N=N/c2cccc3ccccc23)c(O)c2ncccc12 | > 100 µM (inactive) | 23.2 µM (inactive) | 25.4 µM (inactive) | 59.8 µM (inactive) | 35.4 µM (inactive) | 33.4 µM (inactive) | > 100 µM (inactive) | 24.7 µM (inactive) | 29.3 µM (inactive) | > 100 µM (inactive) | 47.8 µM (inactive) | 26.9 µM (inactive) | > 100 µM (inactive) | 60 µM (inactive) | 41.2 µM (inactive) | 38.7 µM (inactive) | 72.8 µM (inactive) | 38.9 µM (inactive) | 55.6 µM (inactive) | 
2 | COC1CC2C=CC3C4OC2(/C(C)=C/C(C)C(C(C)O)OC1=O)C3C(O)C(C)C4OC(=O)c1ccc[nH]1 (stereo unspecified) | > 100 µM (inactive) | 26.5 µM (inactive) | 67 µM (inactive) | > 100 µM (inactive) | > 100 µM (inactive) | > 100 µM (inactive) | > 100 µM (inactive) | 25.9 µM (inactive) | > 100 µM (inactive) | 82 µM (inactive) | > 100 µM (inactive) | 23.4 µM (inactive) | > 100 µM (inactive) | > 100 µM (inactive) | 35.6 µM (inactive) | 94.8 µM (inactive) | > 100 µM (inactive) | > 100 µM (inactive) | 46.6 µM (inactive) | 
3 | CC(=O)O[C@H]1C(=O)[C@@]2(C)[C@H]([C@H](OC(=O)c3ccccc3)[C@]3(O)C[C@H](OC(=O)[C@H](O)[C@@H](NC(=O)c4ccc(N)cc4)c4ccccc4)C(C)=C1C3(C)C)[C@]1(OC(C)=O)CO[C@@H]1C[C@@H]2O | 4.66 µM (inactive) | < 0.005 µM (active) | < 0.005 µM (active) | < 0.005 µM (active) | 0.00847 µM (active) | < 0.005 µM (active) | 0.173 µM (active) | < 0.005 µM (active) | 0.014 µM (active) | 0.0191 µM (active) | 0.0188 µM (active) | 0.0129 µM (active) | > 50 µM (inactive) |  | < 0.005 µM (active) | 0.0369 µM (active) | 0.00687 µM (active) |  | < 0.005 µM (active) | 
4 | CCCCCCCCCCCCP(=O)(O)OCC(N)C(=O)O (stereo unspecified) | 49.9 µM (inactive) | 24.2 µM (inactive) | 23.7 µM (inactive) | 40.3 µM (inactive) | 24.8 µM (inactive) | 45.8 µM (inactive) | 33.3 µM (inactive) |  | 30.1 µM (inactive) | 40.4 µM (inactive) | 48.8 µM (inactive) | 16.9 µM (inactive) | 43.3 µM (inactive) | 18.9 µM (inactive) | 30.9 µM (inactive) | 27.5 µM (inactive) | 34.1 µM (inactive) | 48.9 µM (inactive) | 16 µM (inactive) | > 100 µM (inactive)
5 | N#Cc1ccc(/C=N/NC(=O)CSCC(=O)N/N=C/c2ccc(C#N)cc2)cc1 | > 100 µM (inactive) | > 100 µM (inactive) | > 100 µM (inactive) | > 100 µM (inactive) | > 100 µM (inactive) | > 100 µM (inactive) | 56 µM (inactive) |  | > 100 µM (inactive) | > 100 µM (inactive) | > 100 µM (inactive) | > 100 µM (inactive) | > 100 µM (inactive) | > 100 µM (inactive) | > 100 µM (inactive) | > 100 µM (inactive) | > 100 µM (inactive) | > 100 µM (inactive) | > 100 µM (inactive) | > 100 µM (inactive)
6 | O=C1/C(=C/Cc2ccco2)N=C(c2ccccc2)N1c1nc2ccc(Sc3ccccc3)cc2[nH]1 | 25.4 µM (inactive) | 13.6 µM (inactive) | 26.9 µM (inactive) | 34 µM (inactive) | 29.8 µM (inactive) | 18.2 µM (inactive) | 35.4 µM (inactive) | 19.3 µM (inactive) | 30.3 µM (inactive) | 23.1 µM (inactive) | 19.7 µM (inactive) | 16.3 µM (inactive) | 28.2 µM (inactive) | 16.1 µM (inactive) | 24.2 µM (inactive) | 18 µM (inactive) | 25.9 µM (inactive) |  | 22.9 µM (inactive) | 
